Columns and labels:
[1] = system: U251; test: cells; format: cell-based; conditions: Homo sapiens, U-251; U251; 10 μM; read-out: growth inhibition % (GI%)
[2] = system: SF-539; test: cells; format: cell-based; conditions: Homo sapiens; SF-539; 10 μM; read-out: growth inhibition % (GI%)
[3] = system: OVCAR-5; test: cells; format: cell-based; conditions: Homo sapiens; OVCAR-5; 10 μM; read-out: growth inhibition % (GI%)
[4] = system: A549/ATCC; test: cells; format: cell-based; conditions: Homo sapiens; A549/ATCC; 10 μM; read-out: growth inhibition % (GI%)
[5] = system: HCC-2998; test: cells; format: cell-based; conditions: Homo sapiens; HCC-2998; 10 μM; read-out: growth inhibition % (GI%)
[6] = system: SR; test: cells; format: cell-based; conditions: Homo sapiens, 10 μM, read-out: growth inhibition % (GI%)
[7] = system: HCT-15; test: cells; format: cell-based; conditions: Homo sapiens; HCT-15; 10 μM; read-out: growth inhibition % (GI%)
[8] = system: MDA-MB-435; test: cells; format: cell-based; conditions: Homo sapiens; MDA-MB-435; 10 μM; read-out: growth inhibition % (GI%)
[9] = system: OVCAR-3; test: NCI 60 cell line antiproliferative screening (SRB), Ovarian cancer; conditions: Homo sapiens, OVCAR-3, read-out: growth inhibition % (GI%)
[10] = system: EKVX; test: cells; format: cell-based; conditions: Homo sapiens, 10 μM, read-out: growth inhibition % (GI%)
[11] = system: BT-549; test: cells; format: cell-based; conditions: Homo sapiens; BT-549; 10 μM; read-out: growth inhibition % (GI%)
[12] = system: PC-3; test: cells; format: cell-based; conditions: Homo sapiens; PC-3; 10 μM; read-out: growth inhibition % (GI%)
[13] = system: SK-MEL-28; test: cells; format: cell-based; conditions: Homo sapiens; SK-MEL-28; 10 μM; read-out: growth inhibition % (GI%)
[14] = system: A498; test: cells; format: cell-based; conditions: Homo sapiens; A498; 10 μM; read-out: growth inhibition % (GI%)
[15] = system: COLO-205; test: cells; format: cell-based; conditions: Homo sapiens; COLO-205; 10 μM; read-out: growth inhibition % (GI%)
[16] = system: RPMI-8226; test: cells; format: cell-based; conditions: Homo sapiens; RPMI-8226; 10 μM; read-out: growth inhibition % (GI%)
[17] = system: DU-145; test: cells; format: cell-based; conditions: Homo sapiens; DU-145; 10 μM; read-out: growth inhibition % (GI%)
[18] = system: UACC-257; test: cells; format: cell-based; conditions: Homo sapiens; UACC-257; 10 μM; read-out: growth inhibition % (GI%)
[19] = system: NCI-H226; test: cells; format: cell-based; conditions: Homo sapiens; NCI-H226; 10 μM; read-out: growth inhibition % (GI%)
[20] = system: HOP-92; test: cells; format: cell-based; conditions: Homo sapiens; HOP-92; 10 μM; read-out: growth inhibition % (GI%)
[21] = system: OVCAR-4; test: cells; format: cell-based; conditions: Homo sapiens; OVCAR-4; 10 μM; read-out: growth inhibition % (GI%)
[22] = system: NCI-H322M; test: cells; format: cell-based; conditions: Homo sapiens, 10 μM, read-out: growth inhibition % (GI%)
[23] = system: T-47D; test: cells; format: cell-based; conditions: Homo sapiens, T47D; T-47D; 10 μM; read-out: growth inhibition % (GI%)
[24] = system: KM12; test: cells; format: cell-based; conditions: Homo sapiens; KM12; 10 μM; read-out: growth inhibition % (GI%)
[25] = system: TK-10; test: cells; format: cell-based; conditions: Homo sapiens; TK-10; 10 μM; read-out: growth inhibition % (GI%)
[26] = system: MDA-MB-468; test: NCI 60 cell line antiproliferative screening (SRB), Breast cancer; conditions: Homo sapiens, MDA-MB-468, read-out: growth inhibition % (GI%)
[27] = system: 786-0; test: cells; format: cell-based; conditions: Homo sapiens; 786-0; 10 μM; read-out: growth inhibition % (GI%)
[28] = system: IGROV1; test: cells; format: cell-based; conditions: Homo sapiens, IGROV-1; IGROV1; 10 μM; read-out: growth inhibition % (GI%)
[29] = system: HT29; test: cells; format: cell-based; conditions: Homo sapiens, HT-29; HT29; 10 μM; read-out: growth inhibition % (GI%)
[30] = system: HL-60(TB); test: cells; format: cell-based; conditions: Homo sapiens; HL-60(TB); 10 μM; read-out: growth inhibition % (GI%)
[31] = system: SK-OV-3; test: cells; format: cell-based; conditions: Homo sapiens; SK-OV-3; 10 μM; read-out: growth inhibition % (GI%)
[32] = system: SNB-19; test: cells; format: cell-based; conditions: Homo sapiens; SNB-19; 10 μM; read-out: growth inhibition % (GI%)
[33] = system: MCF7; test: cells; format: cell-based; conditions: Homo sapiens; MCF7; 10 μM; read-out: growth inhibition % (GI%)
[34] = system: NCI-H460; test: cells; format: cell-based; conditions: Homo sapiens; NCI-H460; 10 μM; read-out: growth inhibition % (GI%)
[35] = system: MDA-MB-231/ATCC; test: NCI 60 cell line antiproliferative screening (SRB), Breast cancer; format: cell-based; conditions: Homo sapiens, MDA-MB-231, read-out: growth inhibition % (GI%)
[36] = system: HOP-62; test: cells; format: cell-based; conditions: Homo sapiens; HOP-62; 10 μM; read-out: growth inhibition % (GI%)
[37] = system: SK-MEL-2; test: cells; format: cell-based; conditions: Homo sapiens; SK-MEL-2; 10 μM; read-out: growth inhibition % (GI%)
[38] = system: panel of 60 tumour cell lines; test: NCI 60 cell line antiproliferative screening (SRB), whole panel or subpanels (means, ranges, words); format: cell-based, human
[39] = system: SNB-75; test: cells; format: cell-based; conditions: Homo sapiens; SNB-75; 10 μM; read-out: growth inhibition % (GI%)
[40] = system: HCT-116; test: cells; format: cell-based; conditions: Homo sapiens; HCT-116; 10 μM; read-out: growth inhibition % (GI%)
[41] = system: NCI/ADR-RES; test: cells; format: cell-based; conditions: Homo sapiens, 10 μM, read-out: growth inhibition % (GI%)
[42] = system: MOLT-4; test: cells; format: cell-based; conditions: Homo sapiens; MOLT-4; 10 μM; read-out: growth inhibition % (GI%)
[43] = system: LOX IMIV; test: cells; format: cell-based; conditions: Homo sapiens, 60 cell; LOX IMIV; 10 μM; read-out: growth inhibition % (GI%)
[44] = system: HS 578T; test: cells; format: cell-based; conditions: Homo sapiens; HS 578T; 10 μM; read-out: growth inhibition % (GI%)
[45] = system: UACC-62; test: cells; format: cell-based; conditions: Homo sapiens; UACC-62; 10 μM; read-out: growth inhibition % (GI%)
[46] = system: NCI-H522; test: cells; format: cell-based; conditions: Homo sapiens; NCI-H522; 10 μM; read-out: growth inhibition % (GI%)

O=C(CSc1nc2ccccc2c(=O)n1-c1ccccc1)NN=Cc1ccc(N2CCOCC2)cc1 [6h, N'-(4-morpholinobenzylidene)-2-((4-oxo-3-phenyl-3,4-dihydroquinazolin-2-yl)thio)acetohydrazide]
did not show activity: antiproliferative activity against all tested cell lines ([38]; 10 μM single dose)
< 0%: inhibition at 10 µM ([38]; Homo sapiens, 60 cell, mean over the cell line panel, 10 μM, read-out: Mean growth inhibition % (mean GI%))
< 15%: inhibition at 10 µM [1] | inhibition at 10 µM [2] | inhibition at 10 µM [3] | inhibition at 10 µM [4] | inhibition at 10 µM [5] | inhibition at 10 µM [6] | inhibition at 10 µM [7] | inhibition at 10 µM [8] | inhibition at 10 µM [9] | inhibition at 10 µM [10] | inhibition at 10 µM [11] | inhibition at 10 µM [12] | inhibition at 10 µM [13] | inhibition at 10 µM [15] | inhibition at 10 µM [16] | inhibition at 10 µM [17] | inhibition at 10 µM [18] | inhibition at 10 µM [19] | inhibition at 10 µM [21] | inhibition at 10 µM [22] | inhibition at 10 µM [23] | inhibition at 10 µM [24] | inhibition at 10 µM [25] | inhibition at 10 µM [26] | inhibition at 10 µM [27] | inhibition at 10 µM [28] | inhibition at 10 µM [29] | inhibition at 10 µM [30] | inhibition at 10 µM [31] | inhibition at 10 µM [32] | inhibition at 10 µM [33] | inhibition at 10 µM [34] | inhibition at 10 µM [35] | inhibition at 10 µM [36] | inhibition at 10 µM [37] | inhibition at 10 µM [39] | inhibition at 10 µM [40] | inhibition at 10 µM [41] | inhibition at 10 µM [42] | inhibition at 10 µM [43] | inhibition at 10 µM [44] | inhibition at 10 µM [45] | inhibition at 10 µM [46]
15.8%: inhibition at 10 µM [14]
18.7%: inhibition at 10 µM [20]
